From ChEMBL document CHEMBL2440076, “New triarylpyrazoles as broad-spectrum anticancer agents: design, synthesis, and biological evaluation” (Eur J Med Chem, 2013)

Key:
DU-145 [1] = test: Growth inhibition of human DU145 cells after 48 hrs by sulforhodamine B assay; format: functional; conditions: DU-145, 48 h
OVCAR-3 = test: Growth inhibition of human OVCAR3 cells assessed as cell growth at 10 uM after 48 hrs by sulforhodamine B assay; format: functional; conditions: OVCAR-3, 48 h, read-out: Activity
M14 [2] = test: Growth inhibition of human M14 cells after 48 hrs by sulforhodamine B assay; format: functional; conditions: M14, 48 h
PC-3 = test: Growth inhibition of human PC3 cells after 48 hrs by sulforhodamine B assay; format: functional, cell-based; conditions: PC-3, 48 h
SNB-75 = test: Growth inhibition of human SNB75 cells after 48 hrs by sulforhodamine B assay; format: functional; conditions: SNB-75, 48 h
A549 [3] = test: Growth inhibition of human A549/ATCC cells after 48 hrs by sulforhodamine B assay; format: functional; conditions: A549, 48 h
HT-29 [4] = test: Growth inhibition of human HT-29 cells assessed as cell growth at 10 uM after 48 hrs by sulforhodamine B assay; format: functional; conditions: HT-29, 48 h, read-out: Activity
SNB-19 [5] = test: Growth inhibition of human SNB19 cells after 48 hrs by sulforhodamine B assay; format: functional; conditions: SNB-19, 48 h
[6] = Growth inhibition of human Hs 578T cells assessed as cell growth at 10 uM after 48 hrs by sulforhodamine B assay; format: functional; conditions: read-out: Activity
HCT-116 = test: Growth inhibition of human HCT116 cells after 48 hrs by sulforhodamine B assay; format: functional; conditions: HCT-116, 48 h
HCT-15 [7] = test: Growth inhibition of human HCT15 cells after 48 hrs by sulforhodamine B assay; format: functional; conditions: HCT-15, 48 h
[8] = Growth inhibition of human NCI-ADR-RES cells after 48 hrs by sulforhodamine B assay; format: functional
UACC-257 = test: Growth inhibition of human UACC257 cells after 48 hrs by sulforhodamine B assay; format: functional; conditions: UACC-257, 48 h
[9] = Growth inhibition of human HCC2998 cells assessed as cell growth at 10 uM after 48 hrs by sulforhodamine B assay; format: functional; conditions: HCC 2998, 48 h, read-out: Activity
SW-620 = test: Growth inhibition of human SW620 cells assessed as cell growth at 10 uM after 48 hrs by sulforhodamine B assay; format: functional; conditions: SW-620, 48 h, read-out: Activity
DU-145 [10] = test: Growth inhibition of human DU145 cells assessed as cell growth at 10 uM after 48 hrs by sulforhodamine B assay; format: functional; conditions: DU-145, 48 h, read-out: Activity
U-251 = test: Growth inhibition of human U251 cells after 48 hrs by sulforhodamine B assay; format: functional; conditions: U-251, 48 h
KM12 = test: Growth inhibition of human KM12 cells assessed as cell growth at 10 uM after 48 hrs by sulforhodamine B assay; format: functional; conditions: KM12, 48 h, read-out: Activity
A498 = test: Growth inhibition of human A498 cells after 48 hrs by sulforhodamine B assay; format: functional, cell-based; conditions: A498, 48 h
NCI-H322M = test: Growth inhibition of human NCI-H322M cells after 48 hrs by sulforhodamine B assay; format: functional
MDA-MB-435 = test: Growth inhibition of human MDA-MB-435 cells after 48 hrs by sulforhodamine B assay; format: functional, cell-based; conditions: MDA-MB-435, 48 h
RXF 393 = test: Growth inhibition of human RXF393 cells after 48 hrs by sulforhodamine B assay; format: functional; conditions: RXF 393, 48 h
HCT-15 [11] = test: Growth inhibition of human HCT15 cells assessed as cell growth at 10 uM after 48 hrs by sulforhodamine B assay; format: functional; conditions: HCT-15, 48 h, read-out: Activity
ACHN = test: Growth inhibition of human ACHN cells assessed as cell growth at 10 uM after 48 hrs by sulforhodamine B assay; format: functional; conditions: read-out: Activity
786-0 = test: Growth inhibition of human 786-0 cells assessed as cell growth at 10 uM after 48 hrs by sulforhodamine B assay; format: functional; conditions: 786-0, 48 h, read-out: Activity
SN12C = test: Growth inhibition of human SN12C cells after 48 hrs by sulforhodamine B assay; format: functional
HT-29 [12] = test: Growth inhibition of human HT-29 cells after 48 hrs by sulforhodamine B assay; format: functional; conditions: HT-29, 48 h
SNB-19 [13] = test: Growth inhibition of human SNB19 cells assessed as cell growth at 10 uM after 48 hrs by sulforhodamine B assay; format: functional; conditions: SNB-19, 48 h, read-out: Activity
M14 [14] = test: Growth inhibition of human M14 cells assessed as cell growth at 10 uM after 48 hrs by sulforhodamine B assay; format: functional; conditions: M14, 48 h, read-out: Activity
SK-MEL-2 = test: Growth inhibition of human SK-MEL-2 cells assessed as cell growth at 10 uM after 48 hrs by sulforhodamine B assay; format: functional; conditions: SK-MEL-2, 48 h, read-out: Activity
TK-10 = test: Growth inhibition of human TK10 cells assessed as cell growth at 10 uM after 48 hrs by sulforhodamine B assay; format: functional; conditions: TK-10, 48 h, read-out: Activity
[15] = Growth inhibition of human Hs 578T cells after 48 hrs by sulforhodamine B assay; format: functional
SK-MEL-28 = test: Growth inhibition of human SK-MEL-28 cells assessed as cell growth at 10 uM after 48 hrs by sulforhodamine B assay; format: functional; conditions: SK-MEL-28, 48 h, read-out: Activity
A549 [16] = test: Growth inhibition of human A549/ATCC cells assessed as cell growth at 10 uM after 48 hrs by sulforhodamine B assay; format: functional; conditions: A549, 48 h, read-out: Activity
OVCAR-4 = test: Growth inhibition of human OVCAR4 cells assessed as cell growth at 10 uM after 48 hrs by sulforhodamine B assay; format: functional; conditions: OVCAR-4, 48 h, read-out: Activity
[17] = read-out: LC50 (the source's name)

Structure (SMILES): COc1cc(-c2nn(-c3cccc(NC(=O)Nc4ccc(Cl)c(Cl)c4)c3)cc2-c2ccncc2)ccc1Cl
- GI50 (DU-145 [1]): 1520 nM
- LC50 (DU-145 [1]): > 50000 nM
- TGI (DU-145 [1]): 34200 nM
- growth at 10 µM (OVCAR-3): -10%
- GI50 (M14 [2]): 911 nM
- LC50 (concentration killing 50% of cells) (M14 [2]): 41200 nM
- TGI (M14 [2]): 2690 nM
- GI50 (PC-3): 554 nM
- IC50 (PC-3): 550 nM
- TGI (PC-3): 2830 nM
- CC50 (PC-3; [17]): > 50000 nM
- GI50 (SNB-75): 1050 nM
- LC50 (lethal concentration, 50% net cell kill) (SNB-75): > 50000 nM
- TGI (SNB-75): 5170 nM
- GI50 (A549 [3]): 745 nM
- LC50 (concentration killing 50% of starting cells) (A549 [3]): > 50000 nM
- TGI (A549 [3]): > 50000 nM
- growth at 10 µM (HT-29 [4]): 1.12%
- GI50 (SNB-19 [5]): 1720 nM
- LC50 (concentration killing 50% of cells) (SNB-19 [5]): > 50000 nM
- TGI (SNB-19 [5]): > 50000 nM
- growth at 10 µM [6]: -6.95%
- GI50 (HCT-116): 1210 nM
- TGI (HCT-116): > 50000 nM
- CC50 (HCT-116; [17]): > 50000 nM
- GI50 (HCT-15 [7]): 1230 nM
- LC50 (HCT-15 [7]): > 50000 nM
- TGI (HCT-15 [7]): > 50000 nM
- GI50 [8]: 990 nM
- TGI [8]: 4670 nM
- CC50 [8, 17]: > 50000 nM
- GI50 (UACC-257): 1040 nM
- TGI (UACC-257): 3110 nM
- CC50 (UACC-257; [17]): > 50000 nM
- growth at 10 µM [9]: 2.84%
- growth at 10 µM (SW-620): 13.4%
- growth at 10 µM (DU-145 [10]): 20%
- GI50 (U-251): 820 nM
- LC50 (concentration killing 50% of cells) (U-251): > 50000 nM
- TGI (U-251): 2470 nM
- growth at 10 µM (KM12): 1.3%
- GI50 (A498): 1140 nM
- IC50 (A498): 1140 nM
- TGI (A498): 4590 nM
- CC50 (A498; [17]): > 50000 nM
- GI50 (NCI-H322M): 1690 nM
- TGI (NCI-H322M): > 50000 nM
- CC50 (NCI-H322M; [17]): > 50000 nM
- GI50 (MDA-MB-435): 938 nM
- IC50 (MDA-MB-435): 940 nM
- TGI (MDA-MB-435): 2390 nM
- CC50 (MDA-MB-435; [17]): > 50000 nM
- GI50 (RXF 393): 859 nM
- LC50 (concentration killing 50% of cells) (RXF 393): > 50000 nM
- TGI (RXF 393): 2440 nM
- growth at 10 µM (HCT-15 [11]): 12.7%
- growth at 10 µM (ACHN): 11.5%
- growth at 10 µM (786-0): 15.3%
- GI50 (SN12C): 1470 nM
- TGI (SN12C): > 50000 nM
- CC50 (SN12C; [17]): > 50000 nM
- GI50 (HT-29 [12]): 1240 nM
- TGI (HT-29 [12]): 6460 nM
- CC50 (HT-29 [12]; [17]): > 50000 nM
- growth at 10 µM (SNB-19 [13]): 27.2%
- growth at 10 µM (M14 [14]): 0.29%
- growth at 10 µM (SK-MEL-2): -44.2%
- growth at 10 µM (TK-10): 10.9%
- GI50 [15]: 1430 nM
- TGI [15]: > 50000 nM
- CC50 [15, 17]: > 50000 nM
- growth at 10 µM (SK-MEL-28): 4.96%
- growth at 10 µM (A549 [16]): -5.88%
- growth at 10 µM (OVCAR-4): 19.8%
